# According to patent publication US12552797B2, “Process for making (3-[cyclopropylethoxy(difluoro)methyl]-6-6[5-fluoro-6-(2,2,2-trifluoroethoxy-3-pyridyl]- [1,2,4]triazolo[4,3-a]pyrazine” (Praxis Precision Medicines, Inc., priority 2019, dated 2026):
# Assay: Stability of suspension formulations in methylcellulose/Poloxamer 188 vehicles (appearance, concentration, purity, PSD)
# Format: physicochemical
# Parameters: key to Appearance: *: homogeneous suspension initially, sedimentation occurred over time and returned to homogeneous after gentle agitation for ~1 min; #: viscous homogeneous suspension initially, sedimentation occurred over time and returned to homogeneous after gentle agitation for ~2 mins
# Conditions: 0.5% 400 cP MC, 0.2% Poloxamer 188
# Protocol: As shown in Tables 9-11, various suspension formulations were tested for stability under different conditions.
# To prepare a suspension weigh required amount of milled Compound 1 into a glass container and add corresponding volume of the vehicle. Thoroughly disperse the compound into a homogenous suspension using an overhead mixer at the final concentration target. Concentrations were prepared at 0.1 mg/mL and at 10 mg/mL. The suspension products were physically evaluated on visual appearance, concentration, purity and PSD.
# The vehicles are prepared by dissolving 0.5% by weight of either 400 cP methylcellulose or 4000 cP methylcellulose and 0.2% Poloxamer 188. For the preserved suspensions, additionally 1.0% by volume of paraben preservative solution was dissolved into vehicle using an overhead mixer. The paraben preservative solution was prepared by dissolving 0.10 g methyl paraben, 0.025 g propylparaben in 9.875 g propylene glycol dissolved by mixing with a stir bar at room temperature for 1 hour.
# [1] = target 0.1 mg/mL, 2-8° C., 14 D
# [2] = target 0.1 mg/mL, 2-8° C., 28 D
# [3] = target 0.1 mg/mL, 2-8° C., time 0
# [4] = target 0.1 mg/mL, 25° C./60% RH, 2 M
# [5] = target 0.1 mg/mL, 25° C./60% RH, 3 M
# [6] = target 0.1 mg/mL, 25° C./60% RH, 7 D
# [7] = target 0.1 mg/mL, 25° C./60% RH, 14 D
# [8] = target 0.1 mg/mL, 25° C./60% RH, 28 D
# [9] = target 0.1 mg/mL, 25° C./60% RH, time 0
# [10] = target 10 mg/mL, 2-8° C., time 0
# [11] = target 10 mg/mL, 25° C./60% RH, 2 M
# [12] = target 10 mg/mL, 25° C./60% RH, 3 M
# [13] = target 10 mg/mL, 25° C./60% RH, 7 D
# [14] = target 10 mg/mL, 25° C./60% RH, 14 D
# [15] = target 10 mg/mL, 25° C./60% RH, 28 D
# [16] = target 10 mg/mL, 25° C./60% RH, time 0
structure (smiles),measurement,setting,value
"CCOC(F)(F)c1nnc2cnc(-c3cnc(OCC(F)(F)F)c(F)c3)cn12 [Compound 1, 3-(ethoxydifluoromethyl)-6-(5-fluoro-6-(2,2,2-trifluoroethoxy)pyridin-3-yl)-[1,2,4]triazolo[4,3-a]pyrazine]",Appearance,"target 0.1 mg/mL, 2-8° C., 2 M",*
same,Conc.,"target 0.1 mg/mL, 2-8° C., 2 M",110 µg/mL
same,PSD (D90),"target 0.1 mg/mL, 2-8° C., 2 M",9.1 μm
same,Purity,"target 0.1 mg/mL, 2-8° C., 2 M",95.87%
same,Appearance,"target 0.1 mg/mL, 2-8° C., 3 M",*
same,Conc.,"target 0.1 mg/mL, 2-8° C., 3 M",110 µg/mL
same,PSD (D90),"target 0.1 mg/mL, 2-8° C., 3 M",12.7 μm
same,Purity,"target 0.1 mg/mL, 2-8° C., 3 M",93.20%
same,Appearance,"target 0.1 mg/mL, 2-8° C., 7 D",*
same,Conc.,"target 0.1 mg/mL, 2-8° C., 7 D",120 µg/mL
same,PSD (D90),"target 0.1 mg/mL, 2-8° C., 7 D",18.2 μm
same,Purity,"target 0.1 mg/mL, 2-8° C., 7 D",100%
same,Appearance,[1],*
same,Conc.,[1],110 µg/mL
same,PSD (D90),[1],14.2 μm
same,Purity,[1],100%
same,Appearance,[2],*
same,Conc.,[2],110 µg/mL
same,PSD (D90),[2],15.4 μm
same,Purity,[2],100%
same,Appearance,[3],*
same,Conc.,[3],110 µg/mL
same,PSD (D90),[3],19.9 μm
same,Purity,[3],100%
same,Appearance,[4],*
same,Conc.,[4],110 µg/mL
same,PSD (D90),[4],8.6 μm
same,Purity,[4],95.87%
same,Appearance,[5],*
same,Conc.,[5],110 µg/mL
same,PSD (D90),[5],11.1 μm
same,Purity,[5],93.20%
same,Appearance,[6],*
same,Conc.,[6],110 µg/mL
same,PSD (D90),[6],19.9 μm
same,Purity,[6],100.0%
same,Appearance,[7],*
same,Conc.,[7],110 µg/mL
same,PSD (D90),[7],12.9 μm
same,Purity,[7],100%
same,Appearance,[8],*
same,Conc.,[8],100 µg/mL
same,PSD (D90),[8],8.7 μm
same,Purity,[8],100%
same,Appearance,[9],*
same,Conc.,[9],110 µg/mL
same,PSD (D90),[9],19.9 μm
same,Purity,[9],100.0%
same,Appearance,"target 10 mg/mL, 2-8° C., 2 M",*
same,Conc.,"target 10 mg/mL, 2-8° C., 2 M",10990 µg/mL
same,PSD (D90),"target 10 mg/mL, 2-8° C., 2 M",4.0 μm
same,Purity,"target 10 mg/mL, 2-8° C., 2 M",99.83%
same,Appearance,"target 10 mg/mL, 2-8° C., 3 M",*
same,Conc.,"target 10 mg/mL, 2-8° C., 3 M",10130 µg/mL
same,PSD (D90),"target 10 mg/mL, 2-8° C., 3 M",3.6 μm
same,Purity,"target 10 mg/mL, 2-8° C., 3 M",99.83%
same,Appearance,"target 10 mg/mL, 2-8° C., 7 D",*
same,Conc.,"target 10 mg/mL, 2-8° C., 7 D",10180 µg/mL
same,PSD (D90),"target 10 mg/mL, 2-8° C., 7 D",6.4 μm
same,Purity,"target 10 mg/mL, 2-8° C., 7 D",99.83%
same,Appearance,"target 10 mg/mL, 2-8° C., 14 D",*
same,Conc.,"target 10 mg/mL, 2-8° C., 14 D",10660 µg/mL
same,PSD (D90),"target 10 mg/mL, 2-8° C., 14 D",5.4 μm
same,Purity,"target 10 mg/mL, 2-8° C., 14 D",99.83%
same,Appearance,"target 10 mg/mL, 2-8° C., 28 D",*
same,Conc.,"target 10 mg/mL, 2-8° C., 28 D",10560 µg/mL
same,PSD (D90),"target 10 mg/mL, 2-8° C., 28 D",3.8 μm
same,Purity,"target 10 mg/mL, 2-8° C., 28 D",99.83%
same,Appearance,[10],*
same,Conc.,[10],10040 µg/mL
same,PSD (D90),[10],5.6 μm
same,Purity,[10],99.83%
same,Appearance,[11],*
same,Conc.,[11],10470 µg/mL
same,PSD (D90),[11],4.3 μm
same,Purity,[11],99.83%
same,Appearance,[12],*
same,Conc.,[12],10160 µg/mL
same,PSD (D90),[12],3.5 μm
same,Purity,[12],99.83%
same,Appearance,[13],*
same,Conc.,[13],10480 µg/mL
same,PSD (D90),[13],6.3 μm
same,Purity,[13],99.83%
same,Appearance,[14],*
same,Conc.,[14],9850 µg/mL
same,PSD (D90),[14],5.2 μm
same,Purity,[14],99.83%
same,Appearance,[15],*
same,Conc.,[15],10000 µg/mL
same,PSD (D90),[15],4.6 μm
same,Purity,[15],99.83%
same,Appearance,[16],*
same,Conc.,[16],10040 µg/mL
same,PSD (D90),[16],5.6 μm
same,Purity,[16],99.83%
